Test [1] deals with T1, ATP-citrate synthase (ACLY) (Homo sapiens, UniProt P53396).
T1 sequence (P53396 1-1101): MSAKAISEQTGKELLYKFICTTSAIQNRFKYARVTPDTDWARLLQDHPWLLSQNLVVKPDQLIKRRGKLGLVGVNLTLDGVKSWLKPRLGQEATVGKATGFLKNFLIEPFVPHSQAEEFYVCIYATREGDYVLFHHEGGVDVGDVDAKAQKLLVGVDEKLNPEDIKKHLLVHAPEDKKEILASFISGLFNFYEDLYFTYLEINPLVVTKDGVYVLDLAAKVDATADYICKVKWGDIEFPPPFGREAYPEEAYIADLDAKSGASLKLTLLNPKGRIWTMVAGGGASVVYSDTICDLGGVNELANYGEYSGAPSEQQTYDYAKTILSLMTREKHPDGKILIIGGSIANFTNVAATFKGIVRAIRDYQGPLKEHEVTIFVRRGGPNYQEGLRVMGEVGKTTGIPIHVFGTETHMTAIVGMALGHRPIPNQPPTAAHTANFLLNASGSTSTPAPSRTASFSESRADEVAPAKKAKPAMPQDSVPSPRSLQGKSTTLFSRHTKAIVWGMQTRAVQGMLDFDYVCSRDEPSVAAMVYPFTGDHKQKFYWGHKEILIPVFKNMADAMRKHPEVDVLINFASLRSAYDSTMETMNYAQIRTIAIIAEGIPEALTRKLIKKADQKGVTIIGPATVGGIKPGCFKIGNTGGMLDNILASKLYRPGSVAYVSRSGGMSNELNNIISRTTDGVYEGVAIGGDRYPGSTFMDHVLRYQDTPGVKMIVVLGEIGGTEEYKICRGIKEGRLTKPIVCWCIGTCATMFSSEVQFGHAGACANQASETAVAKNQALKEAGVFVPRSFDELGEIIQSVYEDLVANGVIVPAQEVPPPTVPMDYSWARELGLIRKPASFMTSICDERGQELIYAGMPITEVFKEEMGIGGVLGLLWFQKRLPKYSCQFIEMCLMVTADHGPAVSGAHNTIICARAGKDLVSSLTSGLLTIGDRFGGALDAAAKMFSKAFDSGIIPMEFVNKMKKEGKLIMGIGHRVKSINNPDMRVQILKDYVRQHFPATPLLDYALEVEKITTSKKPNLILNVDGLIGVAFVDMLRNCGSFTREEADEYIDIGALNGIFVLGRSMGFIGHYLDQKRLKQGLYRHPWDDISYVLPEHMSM
The test is described as follows: TMT LC-MSMS of 11-labelled proteins. Type of test: cell-based.

Test [2] has as its target Cytochrome b-c1 complex subunit 1, mitochondrial (UQCRC1) (Homo sapiens, UniProt P31930). The test is described as follows: TMT LC-MSMS of 11-labelled proteins. In kind it is cell-based.
[3] abbreviates: sheet Merged, SKBR3 cells, 11 0.5 µM 3 h vs DMSO.
The mark [4] stands for this setting: sheet Merged, SKBR3 cells, 11 0.5 µM 3 h vs with PU-H71 10 µM.

In the case of `CC(=O)Oc1ccc2c(c1)Oc1cc(OC(C)=O)ccc1C21OC(=O)c2cc(C(=O)NCCOCCOCCNC(=O)CCCC(=O)N(CC#N)S(=O)(=O)c3ccc(C(=O)NCCCn4c(Sc5cc6c(cc5I)OCO6)nc5c(N)ncnc54)cc3)ccc21` [compound 11], the “Abundance Ratio: (11) / (11 with PU-H71)” value was determined as 0.932 in test [1] (Exp3, ACLY); 0.837 in test [1] (sheet Exp2, ACLY); 0.851 in test [1] (setting [4]); 0.7 in test [2] (Exp3, UQCRC1); 0.772 in test [2] (sheet Exp2, UQCRC1); 0.735 in test [2] (setting [4]). Also, the “Abundance Ratio: (11) / (DMSO)” value in test [1] (Exp3, ACLY) turned out to be 2.236; in test [1] (sheet Exp2, ACLY), 2.101; in test [1] (setting [3]), 2.047; in test [2] (Exp3, UQCRC1), 3; in test [2] (sheet Exp2, UQCRC1) it was 3.724; in test [2] (setting [3]) it was 3.342. Moreover, the “Abundances (Grouped): 11” value in test [1] (Exp3, ACLY) came to 52.1; in test [1] (sheet Exp2, ACLY) it was 33.4; in test [2] (Exp3, UQCRC1), 50.1; in test [2] (sheet Exp2, UQCRC1), 60.7. Further, the “Abundances (Grouped): 11 with PU-H71” value in test [1] (Exp3, ACLY) was 55.9; in test [1] (sheet Exp2, ACLY), 39.9; in test [2] (Exp3, UQCRC1), 71.6; in test [2] (sheet Exp2, UQCRC1), 78.6.

The values are drawn from paper PMC5951806, “Rapid labelling and covalent inhibition of intracellular native proteins using ligand-directed N-acyl-N-alkyl sulfonamide” (Nature Communications, 2018).
